From US10597388B2, “Pyridazinone herbicides” (FMC CORPORATION, priority 2014, dated 2020)

Legend:
Assay in all cases: Test E greenhouse herbicide test, pre- and postemergence
Type in all cases: in vivo
[1] = system: barnyardgrass (Echinochloa crus-galli)
Procedure, shortened: (§1)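 Greenhouse pots; preemergence on silt loam, postemergence on plants 1- to 4-leaf (2 to 18 cm) grown in peat, vermiculite and nutrient medium. Test chemicals formulated in non-phytotoxic solvent with surfactant. Ratings taken after 14 to 21 d.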

[2] = system: beggarticks (hairy beggarticks, Bidens pilosa)
Procedure, shortened: as §1

corn (Zea mays) = system: corn (Zea mays)
Procedure, shortened: as §1

[3] = system: crabgrass, Brazilian (Brazilian crabgrass, Digitaria horizontalis)
Procedure, shortened: as §1

[4] = system: field bindweed (Convolvulus arvensis)
Procedure, shortened: as §1

[5] = system: goosegrass (Eleusine indica); settings: Preemergence
Procedure, shortened: as §1

[6] = system: lambsquarters (Chenopodium album); settings: Preemergence
Procedure, shortened: as §1

[7] = system: nutsedge, yellow (yellow nutsedge, Cyperus esculentus); settings: Preemergence
Procedure, shortened: as §1

[8] = system: panicum, fall (fall panicum, Panicum dichotomiflorum)
Procedure, shortened: as §1

[9] = system: ragweed (common ragweed, Ambrosia elatior)
Procedure, shortened: as §1

[10] = system: sandbur (southem sandbur, Cenchrus echinatus)
Procedure, shortened: as §1

[11] = system: surinam grass (Brachiaria decumbens); settings: Preemergence
Procedure, shortened: as §1

[12] = system: waterhemp (common waterhemp, Amaranthus rudis)
Procedure, shortened: as §1

[13] = 62 g ai/ha, Postemergence, scale 0 to 100 (0 no effect, 100 complete control)
[14] = 62 g ai/ha, Preemergence, scale 0 to 100 (0 no effect, 100 complete control)
[15] = 125 g ai/ha, Postemergence, scale 0 to 100 (0 no effect, 100 complete control)
[16] = 125 g ai/ha, Preemergence, scale 0 to 100 (0 no effect, 100 complete control)
[17] = Postemergence, 16 g ai/ha, visual, scale 0 no effect to 100 complete control
[18] = Postemergence, 31 g ai/ha, visual, scale 0 no effect to 100 complete control
[19] = Preemergence, 16 g ai/ha, scale 0 to 100, 0 no effect, 100 complete control
[20] = Preemergence, 31 g ai/ha, scale 0 to 100, 0 no effect, 100 complete control
[21] = 62 g ai/ha, scale 0 to 100 (0 no effect, 100 complete control)
[22] = 125 g ai/ha, scale 0 to 100 (0 no effect, 100 complete control)
[23] = 16 g ai/ha, scale 0 to 100, 0 no effect, 100 complete control
[24] = 31 g ai/ha, scale 0 to 100, 0 no effect, 100 complete control
[25] = 250 g ai/ha, Postemergence, scale 0 to 100 (0 no effect, 100 complete control)
[26] = Preemergence, 250 g ai/ha, visual, scale 0 no effect to 100 complete control
[27] = 250 g ai/ha, visual, scale 0 no effect to 100 complete control

Cc1ccc2sc(C)c(-c3c(OC(=O)OC(C)C)c(C)nn(C)c3=O)c2c1 [Compound 66]
Plant response rating, Barnyardgrass [1, 13]: 25
Plant response rating, Barnyardgrass [1, 14]: 20
Plant response rating, Barnyardgrass [1, 15]: 20
Plant response rating, Barnyardgrass [1, 16]: 15
Plant response rating, Barnyardgrass [1, 17]: 20
Plant response rating, Barnyardgrass [1, 18]: 15
Plant response rating, Barnyardgrass [1, 19]: 0
Plant response rating, Barnyardgrass [1, 20]: 15
Plant response rating, Beggarticks [2, 13]: 90
Plant response rating, Beggarticks [2, 14]: 95
Plant response rating, Beggarticks [2, 15]: 100
Plant response rating, Beggarticks [2, 16]: 100
Plant response rating, Beggarticks [2, 17]: 75
Plant response rating, Beggarticks [2, 18]: 80
Plant response rating, Beggarticks [2, 19]: 65
Plant response rating, Beggarticks [2, 20]: 70
Plant response rating, Corn (corn (Zea mays); [13]): 10
Plant response rating, Corn (corn (Zea mays); [14]): 0
Plant response rating, Corn (corn (Zea mays); [15]): 15
Plant response rating, Corn (corn (Zea mays); [16]): 20
Plant response rating, Corn (corn (Zea mays); [17]): 0
Plant response rating, Corn (corn (Zea mays); [18]): 0
Plant response rating, Corn (corn (Zea mays); [19]): 0
Plant response rating, Corn (corn (Zea mays); [20]): 0
Plant response rating, Crabgrass, Brazil [3, 13]: 30
Plant response rating, Crabgrass, Brazil [3, 14]: 25
Plant response rating, Crabgrass, Brazil [3, 15]: 40
Plant response rating, Crabgrass, Brazil [3, 16]: 65
Plant response rating, Crabgrass, Brazil [3, 17]: 10
Plant response rating, Crabgrass, Brazil [3, 18]: 20
Plant response rating, Crabgrass, Brazil [3, 19]: 0
Plant response rating, Crabgrass, Brazil [3, 20]: 25
Plant response rating, Field Bindweed [4, 13]: 80
Plant response rating, Field Bindweed [4, 14]: 50
Plant response rating, Field Bindweed [4, 15]: 80
Plant response rating, Field Bindweed [4, 16]: 40
Plant response rating, Field Bindweed [4, 17]: 70
Plant response rating, Field Bindweed [4, 18]: 60
Plant response rating, Field Bindweed [4, 19]: 0
Plant response rating, Field Bindweed [4, 20]: 5
Plant response rating, Goosegrass [5, 21]: 10
Plant response rating, Goosegrass [5, 22]: 10
Plant response rating, Goosegrass [5, 23]: 5
Plant response rating, Goosegrass [5, 24]: 5
Plant response rating, Lambsquarters [6, 21]: 100
Plant response rating, Lambsquarters [6, 22]: 100
Plant response rating, Lambsquarters [6, 23]: 5
Plant response rating, Lambsquarters [6, 24]: 90
Plant response rating, Nutsedge, Yellow [7, 21]: 65
Plant response rating, Nutsedge, Yellow [7, 22]: 50
Plant response rating, Nutsedge, Yellow [7, 23]: 0
Plant response rating, Nutsedge, Yellow [7, 24]: 5
Plant response rating, Panicum, Fall [8, 13]: 70
Plant response rating, Panicum, Fall [8, 14]: 95
Plant response rating, Panicum, Fall [8, 15]: 80
Plant response rating, Panicum, Fall [8, 16]: 98
Plant response rating, Panicum, Fall [8, 17]: 30
Plant response rating, Panicum, Fall [8, 18]: 70
Plant response rating, Panicum, Fall [8, 19]: 10
Plant response rating, Panicum, Fall [8, 20]: 60
Plant response rating, Ragweed [9, 13]: 80
Plant response rating, Ragweed [9, 14]: 90
Plant response rating, Ragweed [9, 15]: 90
Plant response rating, Ragweed [9, 16]: 100
Plant response rating, Ragweed [9, 17]: 75
Plant response rating, Ragweed [9, 18]: 80
Plant response rating, Ragweed [9, 19]: 25
Plant response rating, Ragweed [9, 20]: 65
Plant response rating, Sandbur [10, 13]: 50
Plant response rating, Sandbur [10, 14]: 10
Plant response rating, Sandbur [10, 15]: 60
Plant response rating, Sandbur [10, 16]: 70
Plant response rating, Sandbur [10, 17]: 25
Plant response rating, Sandbur [10, 18]: 40
Plant response rating, Sandbur [10, 19]: 0
Plant response rating, Sandbur [10, 20]: 0
Plant response rating, Surinam Grass [11, 21]: 5
Plant response rating, Surinam Grass [11, 22]: 50
Plant response rating, Surinam Grass [11, 23]: 5
Plant response rating, Surinam Grass [11, 24]: 20
Plant response rating, Waterhemp [12, 13]: 75
Plant response rating, Waterhemp [12, 14]: 80
Plant response rating, Waterhemp [12, 15]: 80
Plant response rating, Waterhemp [12, 16]: 90
Plant response rating, Waterhemp [12, 17]: 70
Plant response rating, Waterhemp [12, 18]: 65
Plant response rating, Waterhemp [12, 19]: 0
Plant response rating, Waterhemp [12, 20]: 65

Cc1ccc2ccccc2c1-c1c(OC(=O)OC(C)C)c(C)nn(C)c1=O [Compound 72]
Plant response rating, Barnyardgrass [1, 13]: 40
Plant response rating, Barnyardgrass [1, 14]: 30
Plant response rating, Barnyardgrass [1, 15]: 40
Plant response rating, Barnyardgrass [1, 16]: 50
Plant response rating, Barnyardgrass [1, 25]: 50
Plant response rating, Barnyardgrass [1, 18]: 30
Plant response rating, Barnyardgrass [1, 20]: 0
Plant response rating, Barnyardgrass [1, 26]: 50
Plant response rating, Beggarticks [2, 13]: 100
Plant response rating, Beggarticks [2, 14]: 80
Plant response rating, Beggarticks [2, 15]: 98
Plant response rating, Beggarticks [2, 16]: 98
Plant response rating, Beggarticks [2, 25]: 98
Plant response rating, Beggarticks [2, 18]: 90
Plant response rating, Beggarticks [2, 20]: 70
Plant response rating, Beggarticks [2, 26]: 100
Plant response rating, Corn (corn (Zea mays); [13]): 10
Plant response rating, Corn (corn (Zea mays); [14]): 0
Plant response rating, Corn (corn (Zea mays); [15]): 20
Plant response rating, Corn (corn (Zea mays); [16]): 0
Plant response rating, Corn (corn (Zea mays); [25]): 30
Plant response rating, Corn (corn (Zea mays); [18]): 0
Plant response rating, Corn (corn (Zea mays); [20]): 0
Plant response rating, Corn (corn (Zea mays); [26]): 0
Plant response rating, Crabgrass, Brazil [3, 13]: 40
Plant response rating, Crabgrass, Brazil [3, 14]: 60
Plant response rating, Crabgrass, Brazil [3, 15]: 60
Plant response rating, Crabgrass, Brazil [3, 16]: 90
Plant response rating, Crabgrass, Brazil [3, 25]: 70
Plant response rating, Crabgrass, Brazil [3, 18]: 50
Plant response rating, Crabgrass, Brazil [3, 20]: 50
Plant response rating, Crabgrass, Brazil [3, 26]: 98
Plant response rating, Field Bindweed [4, 13]: 80
Plant response rating, Field Bindweed [4, 14]: 0
Plant response rating, Field Bindweed [4, 15]: 95
Plant response rating, Field Bindweed [4, 16]: 65
Plant response rating, Field Bindweed [4, 25]: 90
Plant response rating, Field Bindweed [4, 18]: 70
Plant response rating, Field Bindweed [4, 20]: 0
Plant response rating, Field Bindweed [4, 26]: 90
Plant response rating, Goosegrass [5, 21]: 40
Plant response rating, Goosegrass [5, 22]: 60
Plant response rating, Goosegrass [5, 24]: 20
Plant response rating, Goosegrass [5, 27]: 80
Plant response rating, Lambsquarters [6, 21]: 80
Plant response rating, Lambsquarters [6, 22]: 100
Plant response rating, Lambsquarters [6, 24]: 90
Plant response rating, Lambsquarters [6, 27]: 100
Plant response rating, Nutsedge, Yellow [7, 21]: 20
Plant response rating, Nutsedge, Yellow [7, 22]: 30
Plant response rating, Nutsedge, Yellow [7, 27]: 35
Plant response rating, Panicum, Fall [8, 13]: 80
Plant response rating, Panicum, Fall [8, 14]: 80
Plant response rating, Panicum, Fall [8, 15]: 80
Plant response rating, Panicum, Fall [8, 16]: 90
Plant response rating, Panicum, Fall [8, 25]: 85
Plant response rating, Panicum, Fall [8, 18]: 75
Plant response rating, Panicum, Fall [8, 20]: 75
Plant response rating, Panicum, Fall [8, 26]: 98
Plant response rating, Ragweed [9, 13]: 90
Plant response rating, Ragweed [9, 14]: 90
Plant response rating, Ragweed [9, 15]: 90
Plant response rating, Ragweed [9, 16]: 90
Plant response rating, Ragweed [9, 25]: 95
Plant response rating, Ragweed [9, 18]: 85
Plant response rating, Ragweed [9, 20]: 0
Plant response rating, Ragweed [9, 26]: 100
Plant response rating, Sandbur [10, 13]: 70
Plant response rating, Sandbur [10, 14]: 35
Plant response rating, Sandbur [10, 15]: 75
Plant response rating, Sandbur [10, 16]: 60
Plant response rating, Sandbur [10, 25]: 80
Plant response rating, Sandbur [10, 18]: 60
Plant response rating, Sandbur [10, 20]: 0
Plant response rating, Sandbur [10, 26]: 70
Plant response rating, Surinam Grass [11, 21]: 40
Plant response rating, Surinam Grass [11, 22]: 75
Plant response rating, Surinam Grass [11, 24]: 5
Plant response rating, Surinam Grass [11, 27]: 90
Plant response rating, Waterhemp [12, 13]: 65
Plant response rating, Waterhemp [12, 14]: 100
Plant response rating, Waterhemp [12, 15]: 80
Plant response rating, Waterhemp [12, 16]: 100
Plant response rating, Waterhemp [12, 25]: 90
Plant response rating, Waterhemp [12, 18]: 65
Plant response rating, Waterhemp [12, 20]: 90
Plant response rating, Waterhemp [12, 26]: 100
